Laboratory results reported in patent US20220218827A1, “DELIVERY OF THERAPEUTIC COMPOUNDS WITH IRON OXIDE NANOPARTICLES” (Memorial Sloan Kettering Cancer Center, priority 2012, published 2022).

Legend:
PC3 tumors = assay: Tumor growth in nude mice bearing PC3 tumors; format: in vivo; details: versus control animals
Procedure: Nude, male mice (n=10) bearing PC3 tumors on their flanks were treated on day 0, day 2 and day 6 with 100 μι, either doxorubicin alone or doxorubi tin-loaded Feraheme®, both at a final doxorubicin concentration of 0.28 mM. Changes in tumor size were evaluated with a microcaliper, and at the end of the 8-day study the mice were euthanized, according to the Institutional Animal Care and Use Committee guidelines. • Data Analysis.
Specifically, the mice were treated with equal concentrations of the drug on day 0, 2 and 6, and tumor growth was determined with microcalipers. Control animals were treated with 100 μι, of 10% DMSO-containing PBS to match the DMSO content of the free doxorubicin injection, since the drug was dissolved in DMSO and diluted to the desired concentration in PBS. On day 6 and 8, the tumors were measured, and the change in tumor growth was determined by comparing the volume of tumors from treated animals with those of control ones.

[1] = test system: human prostate adenocarcinoma cells (LNCaP); assay: LNCaP cell viability, Alamar Blue method; format: cell-based; details: 48 h, [Doxorubicin]final=7.5 μM, free or intercalated drug, read-out: reduction in cell viability
Procedure: Cell viability and in vivo studies. LNCaP cells were seeded on black-walled, clear bottom 96-well plates at a cell density of 10,000 cells per well, supplemented with 100 iL 10% FBS-containing RPMI medium. […] Controls included cells incubated with unloaded nanoparticles or DMSO, corresponding to the free drug's final solvent concentration. Subsequently, the old medium was aspirated, and cell viability was assessed via the Alamar Blue method (Invitrogen). Briefly, the cells were supplemented with 10%-alamar-blue-containing medium (10% FBS-containing RPMI), followed by 3 h incubation in a humidified incubator (37° C., 5% CO2) and recording of fluorescence emission (λ ? =565 nm) with the SpectraMax M5 plate reader. […] Experiments were performed in triplicate unless otherwise stated, with the results are presented as mean±SEM.
Cell viability and in vivo studies. […] Subsequently, the old medium was aspirated, and cell viability was assessed via the Alamar Blue method (Invitrogen). Briefly, the cells were supplemented with 10%-alamar-blue-containing medium (10% FBS-containing RPMI), followed by 3 h incubation in a humidified incubator (37° C., 5% CO2) and recording of fluorescence emission ? ran, λειλ=585 nm) with the SpectraMax M5 plate reader.

With `COc1cccc2c1C(=O)c1c(O)c3c(c(O)c1C2=O)C[C@@](O)(C(=O)CO)C[C@@H]3O[C@H]1C[C@H](N)[C@H](O)[C@H](C)O1` [doxorubicin] the “suppression of tumor growth after three injections” value (PC3 tumors; iv day 0, 2 and 6, measured day 8, 0.28 mM doxorubicin) was 34%, the “tumor regression after two injections” value (PC3 tumors; iv day 0 and 2, measured day 6, 100 μL of 0.28 mM doxorubicin) was “some tumor growth” and the cytotoxicity at […] [1] was 60%.
